{"source": "paper PMC10503797", "about": "“Allosteric modulator potentiates β2AR agonist–promoted bronchoprotection in asthma models” (The Journal of Clinical Investigation, 2023)", "key": {"[1]": {"tested_on": "lung slices obtained from ovalbumin-sensitized guinea pigs", "assay": "Ovalbumin-induced airway constriction in lung slices from ovalbumin-sensitized guinea pigs", "assay_type": "cell-based, guinea pig", "details": "Exp1-5", "source_text": "All curve fits were generated using the software program GraphPad Prism. Data are represented as mean ± SEM of 4–5 guinea pigs (see Table 2 for statistical analyses).\nOutbred, male, specified pathogen-free Dunkin Hartley guinea pigs (Charles River Laboratory) weighing 200 to 400 g were used. The animals were housed in pairs under a 12-hour light/dark cycle in a temperature- and humidity-controlled room with food and tap water ad libitum. For studies in the guinea pig model of allergic asthma, animals were actively IgE-sensitized to ovalbumin by injecting a suspension containing 100 μg/mL ovalbumin and 100 mg/mL Al(OH)3 in saline. Each animal was injected with 1.0 mL of suspension: 0.5 mL was injected i.p. and 0.5 mL was divided over 7 s.c. sites close to lymph nodes in the neck, paws, and lumbar regions ([24]). Animals were euthanized at least 4 weeks after sensitization.\n(§1) Precision-cut lung slices were prepared as described previously ([61], [62]). A 3% solution of low melting-point agarose (Gerbu Biotechnik GmbH) in ultrapure water was prepared by heating it a microwave until fully dissolved. […] After filling, the lungs were covered with ice for 30 minutes to solidify the agarose for slicing. […] Lung slices were cut at a thickness of 500 μm and washed several times with slicing buffer to remove debris and washout the isoproterenol. Slices were incubated overnight in a 60 mm dish in sterile incubation buffer: MEM composed of lung slice buffer supplemented with 0.5 mM sodium pyruvate, 1 mM glutamine (Gibco), MEM-amino acids mixture (1:50), MEM-vitamins mixture (1:100; Gibco), and penicillin-streptomycin (1:100; Gibco), pH = 7.2, at 37°C in a CO2- and humidity-controlled atmosphere.\n(§2) After washing the slices in medium, individual guinea pig lung slices were mechanically maintained with a Teflon ring with an inner diameter of 7 mm and covered with 1 mL of incubation buffer. […] Image acquisition software (NIS-Elements, Nikon) was used to quantify airway luminal area. Images of the airways were acquired every 2 seconds during the whole course of the experiment, starting 2 minutes before the addition of any agent to allow for baseline measurements of the airway caliber. For each methacholine or ovalbumin concentration, the maximal airway constriction was expressed as percentage of the initial (baseline) airway luminal area and plotted against that concentration."}, "guinea pig lung slices": {"tested_on": "guinea pig lung slices", "assay": "Methacholine-induced airway constriction in guinea pig lung slices", "assay_type": "cell-based", "details": "for MCh-induced airway constriction response (Figure 5D): Exp1-6", "experimental": "All curve fits were generated using the software program GraphPad Prism. Data are represented as mean ± SEM obtained from 6 guinea pigs.\nas §1, §2"}, "[2]": {"details": "10 µM Fenoterol, -Log [MCh] 6.5"}, "[3]": {"details": "10 µM Fenoterol, -Log [MCh] 7.5"}}, "note": "Several values for one entry are separate records, joined by “and”; a condition that tells them apart may be missing. Identical values can stand only once.", "data": [{"smiles": "CC(Cc1ccc(O)cc1)NCC(O)c1cc(O)cc(O)c1", "note": "(centres unmarked) [Fenoterol, fenoterol]", "values": [{"measurement": "OVA-induced airway constriction response (Figure 6)", "setting": "[1]; 0.1 µM Fenoterol, [OVA] 0.001 ng/ml", "result": "100.0 and 98.0 and 100.9"}, {"measurement": "OVA-induced airway constriction response (Figure 6)", "setting": "[1]; 0.1 µM Fenoterol, [OVA] 0.01 ng/ml", "result": "100.0 and 105.5 and 96.2 and 100.8"}, {"measurement": "OVA-induced airway constriction response (Figure 6)", "setting": "[1]; 0.1 µM Fenoterol, [OVA] 0.1 ng/ml", "result": "100 and 99.0"}, {"measurement": "OVA-induced airway constriction response (Figure 6)", "setting": "[1]; 0.1 µM Fenoterol, [OVA] 1 ng/ml", "result": "100.0 and 109.4 and 99.5 and 95.4"}, {"measurement": "OVA-induced airway constriction response (Figure 6)", "setting": "[1]; 0.1 µM Fenoterol, [OVA] 10 ng/ml", "result": "109.1 and 98.9 and 69.5"}, {"measurement": "OVA-induced airway constriction response (Figure 6)", "setting": "[1]; 0.1 µM Fenoterol, [OVA] 100000 ng/ml", "result": 0.0}, {"measurement": "OVA-induced airway constriction response (Figure 6)", "setting": "[1]; 0.1 µM Fenoterol, [OVA] 1000000 ng/ml", "result": 0.0}, {"measurement": "OVA-induced airway constriction response (Figure 6)", "setting": "[1]; 1 µM Fenoterol, [OVA] 0.001 ng/ml", "result": "103.2 and 100 and 98.0"}, {"measurement": "OVA-induced airway constriction response (Figure 6)", "setting": "[1]; 1 µM Fenoterol, [OVA] 0.01 ng/ml", "result": "103.0 and 100.0 and 95.8"}, {"measurement": "OVA-induced airway constriction response (Figure 6)", "setting": "[1]; 1 µM Fenoterol, [OVA] 0.1 ng/ml", "result": "97.3 and 96.9 and 98.7 and 100"}, {"measurement": "OVA-induced airway constriction response (Figure 6)", "setting": "[1]; 1 µM Fenoterol, [OVA] 1 ng/ml", "result": "103.2 and 98.4 and 95.2 and 100.1 and 99.5"}, {"measurement": "OVA-induced airway constriction response (Figure 6)", "setting": "[1]; 1 µM Fenoterol, [OVA] 10 ng/ml", "result": "101.0 and 98.4 and 92.9 and 100.7 and 99.7"}, {"measurement": "OVA-induced airway constriction response (Figure 6)", "setting": "[1]; 1 µM Fenoterol, [OVA] 100 ng/ml", "result": "98.8 and 99.1 and 98.3 and 105.5 and 98.7"}, {"measurement": "OVA-induced airway constriction response (Figure 6)", "setting": "[1]; 1 µM Fenoterol, [OVA] 1000 ng/ml", "result": "95.3 and 96.8 and 97.2 and 98.0"}, {"measurement": "OVA-induced airway constriction response (Figure 6)", "setting": "[1]; 1 µM Fenoterol, [OVA] 10000 ng/ml", "result": "91.4 and 95.6 and 97.2 and 105.0 and 93.6"}, {"measurement": "OVA-induced airway constriction response (Figure 6)", "setting": "[1]; 1 µM Fenoterol, [OVA] 100000 ng/ml", "result": "91.8 and 92.1 and 100.5 and 99.1 and 87.0"}, {"measurement": "OVA-induced airway constriction response (Figure 6)", "setting": "[1]; 1 µM Fenoterol, [OVA] 1000000 ng/ml", "result": "92.1 and 93.3 and 97.5 and 83.9"}, {"measurement": "airway area in MCh concentration-response (Figure 5A/5C)", "setting": "guinea pig lung slices; 1 µM Fenoterol, -Log [MCh] 2.5", "result": 0.0}, {"measurement": "airway area in MCh concentration-response (Figure 5A/5C)", "setting": "guinea pig lung slices; 1 µM Fenoterol, -Log [MCh] 3", "result": 0.0}, {"measurement": "airway area in MCh concentration-response (Figure 5A/5C)", "setting": "guinea pig lung slices; 1 µM Fenoterol, -Log [MCh] 3.5", "result": 0.0}, {"measurement": "airway area in MCh concentration-response (Figure 5A/5C)", "setting": "guinea pig lung slices; 1 µM Fenoterol, -Log [MCh] 4", "result": 0.0}, {"measurement": "airway area in MCh concentration-response (Figure 5A/5C)", "setting": "guinea pig lung slices; 1 µM Fenoterol, -Log [MCh] 4.5", "result": 0.0}, {"measurement": "airway area in MCh concentration-response (Figure 5A/5C)", "setting": "guinea pig lung slices; 1 µM Fenoterol, -Log [MCh] 7", "result": "100.3 and 103.0 and 66.3 and 92.9 and 96.6"}, {"measurement": "airway area in MCh concentration-response (Figure 5A/5C)", "setting": "guinea pig lung slices; 1 µM Fenoterol, -Log [MCh] 7.5", "result": "101.4 and 100.4 and 106.4 and 96.3"}, {"measurement": "airway area in MCh concentration-response (Figure 5A/5C)", "setting": "guinea pig lung slices; 1 µM Fenoterol, -Log [MCh] 8", "result": "99.1 and 105.8 and 109.5 and 112.9"}, {"measurement": "airway area in MCh concentration-response (Figure 5A/5C)", "setting": "guinea pig lung slices; [2]", "result": "59.0 and 89.4 and 82.6 and 83.1 and 91.0 and 74.6"}, {"measurement": "MCh-induced airway constriction response (Figure 5D)", "setting": "guinea pig lung slices; [2]", "result": "59.0 and 89.4 and 82.6 and 83.1 and 91.0 and 74.6"}, {"measurement": "airway area in MCh concentration-response (Figure 5A/5C)", "setting": "guinea pig lung slices; 10 µM Fenoterol, -Log [MCh] 7", "result": "77.1 and 109.6 and 109.2 and 101.3 and 91.9"}, {"measurement": "MCh-induced airway constriction response (Figure 5D)", "setting": "guinea pig lung slices; 10 µM Fenoterol, -Log [MCh] 7", "result": "77.1 and 109.6 and 109.2 and 101.3 and 91.9"}, {"measurement": "airway area in MCh concentration-response (Figure 5A/5C)", "setting": "guinea pig lung slices; [3]", "result": "94.2 and 110.7 and 102.7 and 105.1"}, {"measurement": "MCh-induced airway constriction response (Figure 5D)", "setting": "guinea pig lung slices; [3]", "result": "94.2 and 110.7 and 102.7 and 105.1"}, {"measurement": "airway area in MCh concentration-response (Figure 5A/5C)", "setting": "guinea pig lung slices; 10 µM Fenoterol, -Log [MCh] 8", "result": "106.3 and 110.5 and 104.8"}, {"measurement": "MCh-induced airway constriction response (Figure 5D)", "setting": "guinea pig lung slices; 10 µM Fenoterol, -Log [MCh] 8", "result": "106.3 and 110.5 and 104.8"}, {"measurement": "MCh-induced airway constriction response (Figure 5D)", "setting": "guinea pig lung slices; 100 µM Fenoterol, -Log [MCh] 6.5", "result": "82.5 and 88.6 and 98.9 and 92.2 and 82.0"}, {"measurement": "MCh-induced airway constriction response (Figure 5D)", "setting": "guinea pig lung slices; 100 µM Fenoterol, -Log [MCh] 7", "result": "98.1 and 101.4 and 98.8 and 109.0 and 104.9"}, {"measurement": "MCh-induced airway constriction response (Figure 5D)", "setting": "guinea pig lung slices; 100 µM Fenoterol, -Log [MCh] 7.5", "result": "106.4 and 100.0 and 110.6 and 99.9"}, {"measurement": "MCh-induced airway constriction response (Figure 5D)", "setting": "guinea pig lung slices; 100 µM Fenoterol, -Log [MCh] 8", "result": "101.0 and 105.4 and 99.3 and 99.7"}, {"measurement": "EC50", "setting": "guinea pig lung slices; Cavia porcellus, read-out: MCh EC50, 1 μM Fenoterol", "result": "370 ± 80", "unit": "nM"}]}]}
